The CheMixHub drug solubility set

Assay: xn = mol fraction of the nth substance listed, in the solute-free solvent

COC(=O)C1=C(C)NC(C)=C(C(=O)OCC(C)C)C1c1ccccc1[N+](=O)[O-] (centres undefined) + CCOC(C)=O + CC(C)O
solubility (g/100 g solution)
Conditions	278.15 K	283.15 K	288.15 K	293.15 K	298.15 K	303.15 K	308.15 K	313.15 K	318.15 K
x2 = 0.07045	3.52	4.21	5.01	5.86	6.83	7.91	9.07	10.5	11.9
x2 = 0.1457	4.03	4.67	5.54	6.46	7.55	8.74	9.96	11.4	12.9
x2 = 0.2262	4.4	5.19	6.09	7.07	8.21	9.47	10.8	12.3	13.9
x2 = 0.3126	4.88	5.76	6.68	7.75	8.91	10.2	11.5	13	14.7
x2 = 0.4055	5.37	6.28	7.26	8.31	9.53	10.8	12.3	13.8	15.4
x2 = 0.5057	5.77	6.69	7.7	8.82	10.1	11.4	12.9	14.5	16.1
x2 = 0.6141	6.12	7.09	8.13	9.25	10.6	12	13.5	15.1	16.8
x2 = 0.7318	6.4	7.37	8.53	9.72	11	12.5	14.1	15.7	17.5
x2 = 0.8599	6.59	7.63	8.83	10	11.4	12.8	14.3	16	17.8

Cc1ccc(Nc2nccc(N(C)c3ccc4c(C)n(C)nc4c3)n2)cc1S(N)(=O)=O + CC#N + CCCCO
solubility (g/100 g solution)
Conditions	288.15 K	293.15 K	298.15 K	303.15 K	308.15 K	313.15 K	318.15 K	323.15 K	328.15 K
x2 = 0.311	0.00876	0.015	0.0216	0.0293	0.0367	0.0447	0.0534	0.0638	0.0746
x2 = 0.5462	0.0159	0.0251	0.0355	0.0464	0.0592	0.0722	0.0852	0.1	0.117
x2 = 0.7303	0.0138	0.0237	0.0349	0.047	0.0614	0.0758	0.0904	0.107	0.126
x2 = 0.8784	0.0109	0.0167	0.0237	0.0316	0.0398	0.05	0.0607	0.0728	0.0871

O=[N+]([O-])c1cc[nH]n1 + CCO + O
solubility (g/100 g solution)
Conditions	283.15 K	288.15 K	293.15 K	298.15 K	303.15 K	308.15 K	313.15 K	318.15 K	323.15 K
x2 = 0.04165	0.265	0.347	0.44	0.528	0.709	0.854	1.16	1.49	1.89
x2 = 0.08908	0.319	0.385	0.478	0.581	0.718	0.87	1.15	1.44	1.83
x2 = 0.1436	0.409	0.521	0.689	0.942	1.16	1.49	1.89	2.41	3.08
x2 = 0.2068	0.482	0.6	0.75	0.956	1.18	1.48	1.87	2.34	2.97
x2 = 0.2812	0.53	0.639	0.777	0.962	1.16	1.46	1.8	2.24	2.82
x2 = 0.3698	1	1.2	1.45	1.71	2.08	2.5	3.05	3.86	4.83
x2 = 0.4772	1.69	1.98	2.32	2.72	3.26	3.87	4.68	5.83	7.1
x2 = 0.6101	2.68	3.06	3.52	4.09	4.83	5.64	6.66	8.11	9.68
x2 = 0.7788	3.98	4.51	5.09	5.8	6.58	7.79	9.11	10.7	12.4

Cc1nc(CCl)nc2ccccc12 + CC(C)=O + CCCCCC
solubility (g/100 g solution)
Conditions	x2 = 0.144	x2 = 0.266	x2 = 0.403	x2 = 0.556	x2 = 0.729
281.15 K	5.18	8.5	12.8	17.2	22.3
286.15 K	6.57	10.8	15.5	21.2	27.1
291.15 K	8.19	13.3	19.2	25.8	32.3
296.15 K	10.3	16.2	22.9	30.4	39.2
301.15 K	12.7	19.9	28.3	36.2	44.9
306.15 K	15.6	23.9	33.3	42.4	51.9
311.15 K	18.9	28.3	38.4	48.4	58.8
316.15 K	22.5	33.1	43.7	54.6	65
321.15 K	26.6	37.2	49	60.7	71
326.15 K	30.9	42.9	54.4	65.4	75.5
331.15 K	34.9	47.5	59	70.3	79.5

CC(=O)Nc1ccc(OC(=O)c2ccccc2OC(C)=O)cc1 + CN1CCCC1=O + O
solubility (g/100 g solution)
Conditions	278.15 K	283.15 K	288.15 K	293.15 K	298.15 K	303.15 K	308.15 K	313.15 K	318.15 K
x2 = 0.0198	0.0101	0.0143	0.02	0.0278	0.0388	0.0522	0.0688	0.0923	0.122
x2 = 0.04347	0.0672	0.0901	0.121	0.159	0.209	0.268	0.349	0.446	0.569
x2 = 0.07228	0.275	0.355	0.448	0.581	0.725	0.903	1.13	1.39	1.7
x2 = 0.1081	0.8	0.998	1.25	1.51	1.85	2.22	2.69	3.19	3.81
x2 = 0.1538	1.62	1.95	2.37	2.85	3.4	4.01	4.67	5.48	6.35
x2 = 0.2143	2.87	3.37	3.94	4.63	5.38	6.15	7.12	8.13	9.18
x2 = 0.2979	4.29	4.95	5.76	6.59	7.51	8.56	9.7	10.8	12.1
x2 = 0.421	5.72	6.53	7.43	8.43	9.49	10.7	11.8	13.2	14.5
x2 = 0.6207	6.55	7.48	8.44	9.55	10.7	11.9	13.3	14.7	16.1
